# Values quoted from earlier work in publication PMC9266750, “Catalase Inhibition by Aminoalkanol Derivatives with Potential Anti-Cancer Activity—In Vitro and In Silico Studies Using Capillary Electrophoresis Method” (International Journal of Molecular Sciences, 2022).
# Test system: CAT
# Conditions: cited from earlier work
row,SMILES,IC50 [µM]
1,NO [hydroxylamine],20
2,[N-]=[N+]=[N-] [sodium azide],25

# Same assay, conditions: specific catalase inhibitor; cited from earlier work
row,SMILES,IC50 [µM]
1,"Nc1nc[nH]n1 [3-Amino-1,2,4-triazole]",6000
